The values below come from ChEMBL document CHEMBL6092216, “Development of α-Helical Antimicrobial Peptides with Imperfect Amphipathicity for Superior Activity and Selectivity” (J Med Chem, 2024).

Calls of active or inactive are those of the source. The rule behind the calls is not given here.

Data set [1] concerns Staphylococcus aureus. Briefly: Antibiofilm activity against preformed Staphylococcus aureus ATCC 6538 biofilms assessed as biofilm eradication at 1X to 10XMIC incubated for 24 hrs by crystal violet staining based analysis. The class given is functional, organism-based.
The nature of data set [2]: Toxicity against C57BL/6J mouse assessed as behavioural changes at 10 to 20 mg/kg, iv measured for 48 hrs post-injection. The conditions noted are these: in vivo, dose 10-20 mg/kg. The class given is organism-based.
The subject of data set [3] is Acinetobacter baumannii. The data set is described as follows: Antibacterial activity against Acinetobacter baumannii 19110 assessed as inhibition of bacterial growth incubated for 24 hrs by tube microdilution assay. The class given is functional.
Data set [4] relates to Staphylococcus aureus. The data set is described as follows: Antibacterial activity against methicillin-resistant Staphylococcus aureus 12 assessed as inhibition of bacterial growth incubated for 24 hrs by tube microdilution assay. It is filed as functional.
A further data set relates to Escherichia coli. The data set is described as follows: Antibacterial activity against Escherichia coli 5017 assessed as inhibition of bacterial growth incubated for 24 hrs by tube microdilution assay. It is filed as functional.
Data set [5] concerns Staphylococcus aureus. The data set is described as follows: Antibacterial activity against Staphylococcus aureus ATCC 6538 assessed as inhibition of bacterial growth by tube microdilution assay. The class given is functional.
In data set [6] the test system is Staphylococcus aureus. The data set is described as follows: Antibacterial activity against Staphylococcus aureus 157752 assessed as inhibition of bacterial growth incubated for 24 hrs by tube microdilution assay. It is filed as functional.
The test system of data set [7] is Acinetobacter baumannii. The data set is described as follows: Antipersister-activity against Acinetobacter baumannii ATCC 19606 assessed as elimination of persister cells preincubated adherent persistent cells with colistin for 24 hrs followed by incubation with drug for 12 hrs. It is filed as functional, organism-based.
Data set [8] concerns Staphylococcus aureus. The data set is described as follows: Antibacterial activity against methicillin-resistant Staphylococcus aureus Z assessed as inhibition of bacterial growth incubated for 24 hrs by tube microdilution assay. It is filed as functional.
Data set [9] has as its system Staphylococcus aureus. The data set is described as follows: Ratio of MIC for antibacterial activity against Staphylococcus aureus ATCC 6538 measured following incubation of drug with mouse plasma for 8 hrs to MIC for antibacterial activity against Staphylococcus aureus ATCC 6538. It is filed as functional.
Data set [10] concerns Staphylococcus aureus. Briefly: Antibacterial activity against Staphylococcus aureus ATCC 6538 infected in BALB/c mouse assessed as inhibition of bacterial colonization on wounded skin at 0.5 mg/ml applied on skin and measured after 2 hrs relative to control. It is filed as functional.
The test system of data set [11] is Staphylococcus aureus. The data set is described as follows: Antibacterial activity against methicillin-resistant Staphylococcus aureus 52 assessed as inhibition of bacterial growth incubated for 24 hrs by tube microdilution assay. It is filed as functional.
In data set [12] the test system is Staphylococcus aureus. Briefly: Antibacterial activity against methicillin-resistant Staphylococcus aureus 42 assessed as inhibition of bacterial growth incubated for 24 hrs by tube microdilution assay. The class given is functional.
Data set [13] concerns Staphylococcus aureus. Briefly: Bactericidal activity against Staphylococcus aureus ATCC 6538 assessed as elimination of bacterial cells at 5X to 10X MIC measured within 3 hrs by killing kinetic assay. It is filed as functional.
The subject of a further data set is Cell membrane. Briefly: Induction of membrane permeabilization in Pseudomonas aeruginosa 17068 assessed as increase in fluorescence intensity at 1X to 10XMIC measured for 90 mins by propidium iodide staining based fluorescence analysis. It is filed as subcellular.
Data set [14] relates to Acinetobacter baumannii. Briefly: Antibiofilm activity against preformed Acinetobacter baumannii ATCC 19606 biofilms assessed as biofilm eradication at 1X to 10XMIC incubated for 24 hrs by crystal violet staining based analysis. The class given is functional, organism-based.
For data set [15], the system named is Staphylococcus aureus. Briefly: Antibiofilm activity against Staphylococcus aureus ATCC 6538 assessed as inhibition of biofilm formation at 1X to 10XMIC incubated for 24 hrs by crystal violet staining based analysis. The class given is functional, organism-based.
In data set [16] the test system is Staphylococcus aureus. The data set is described as follows: Antibacterial activity against Staphylococcus aureus 08310 assessed as inhibition of bacterial growth incubated for 24 hrs by tube microdilution assay. It is filed as functional.
Data set [17] relates to Acinetobacter baumannii. Briefly: Antibiofilm activity against Acinetobacter baumannii ATCC 19606 assessed as inhibition of biofilm formation at 1X to 10XMIC incubated for 24 hrs by crystal violet staining based analysis. The class given is functional, organism-based.
For a further data set, the system named is Pseudomonas aeruginosa. Briefly: Induction of bacterial cell rupture in Pseudomonas aeruginosa ATCC 27853 assessed as bacterial membrane damage with visible surface irregularities and protrusions at 5XMIC measured after 30 mins scanning electron microscopy. It is filed as functional, organism-based.

With H-RRGIKKFIKKVKKVKKAI-OH, the outcome in the data set with Staphylococcus aureus [1], in the data set on Acinetobacter baumannii [14] and with Pseudomonas aeruginosa was Active. The Activity result in [2] is “Non-toxic”; in the data set with Acinetobacter baumannii [7], “Dose-dependent-effect”; in the data set on Staphylococcus aureus [13], 100%; in the data set with Cell membrane, “Dose-dependent-effect”; with Staphylococcus aureus [15] it was “Dose-dependent-effect”; in the data set on Acinetobacter baumannii [17], “Dose-dependent-effect”. Further, the minimum inhibitory concentration (MIC) turned out to be 2.34 mg/L in the data set with Acinetobacter baumannii [3]; 2.34 mg/L in the data set with Staphylococcus aureus [4]; 9.37 mg/L in the data set with Escherichia coli; 2.34 mg/L in the data set on Staphylococcus aureus [5]; 2.34 mg/L with Staphylococcus aureus [6]; 2.34 mg/L in the data set with Staphylococcus aureus [8]. Besides, the MIC in the data set on Staphylococcus aureus [11], with Staphylococcus aureus [12] and in the data set on Staphylococcus aureus [16] was 2.34 mg/L in each case. Moreover, in the data set with Staphylococcus aureus [9], the Ratio is 4. Moreover, in the data set with Staphylococcus aureus [10], the inhibition in vivo at 500 µg/mL was 71.8%.
